Test results as given in EPA's CvTdb concentration-time database.

How the values were obtained:
Rat [1] = test: concentration in plasma after dosing; conditions: dosed: 2-Hydroxy-4-methoxybenzophenone, 500 mg/kg, oral, Male, F344
Rat [2] = test: concentration in plasma after dosing; conditions: dosed: 2-Hydroxy-4-methoxybenzophenone, 500 mg/kg, oral, Female, F344
Mouse [3] = test: concentration in plasma after dosing; conditions: 2 h; dosed: 2-Hydroxy-4-methoxybenzophenone; 500 mg/kg; oral; Male; B6C3F1
Mouse [4] = test: concentration in plasma after dosing; conditions: 2 h; dosed: 2-Hydroxy-4-methoxybenzophenone; 50 mg/kg; iv; Male; B6C3F1
Rat [5] = test: concentration in plasma after dosing; conditions: 0.25 h; dosed: 2-Hydroxy-4-methoxybenzophenone; 500 mg/kg; oral; Male; F344
Rat [6] = test: concentration in plasma after dosing; conditions: dosed: Nitrite, 80 mg/kg, oral, Female, F344
Rat [7] = test: concentration in plasma after dosing; conditions: 5 min; dosed: Nitrite; 20 mg/kg; iv; Male; F344
Rat [8] = test: concentration in plasma after dosing; conditions: dosed: Nitrite, 20 mg/kg, iv, Male, F344
Rat [9] = test: concentration in plasma after dosing; conditions: 5 min; dosed: Nitrite; 40 mg/kg; oral; Female; F344
Rat [10] = test: concentration in brain after dosing; conditions: 12 h; dosed: Perfluorooctanoic acid; 80 mg/kg; oral; Female; Harlan Sprague Dawley
Rat [11] = test: concentration in plasma after dosing; conditions: 3 h; dosed: 678-39-7; 12 mg/kg; iv; Male; F344
Rat [12] = test: concentration in brain after dosing; conditions: 6 h; dosed: Perfluorooctanoic acid; 80 mg/kg; oral; Female; Harlan Sprague Dawley
Rat [13] = test: concentration in plasma after dosing; conditions: dosed: 678-39-7, 40 mg/kg, iv, Male, F344
Rat [14] = test: concentration in liver after dosing; conditions: 24 h; dosed: Perfluorooctanoic acid; 80 mg/kg; oral; Female; Harlan Sprague Dawley
Rat [15] = test: concentration in liver after dosing; conditions: 3 h; dosed: Perfluorooctanoic acid; 80 mg/kg; oral; Female; Harlan Sprague Dawley
Rat [16] = test: concentration in plasma after dosing; conditions: dosed: 678-39-7, 40 mg/kg, iv, Female, Harlan Sprague-Dawley
Rat [17] = test: concentration in plasma after dosing; conditions: 3 h; dosed: Fluorotelomer alcohol 8+2; 12 mg/kg; oral; Male; Harlan Sprague Dawley
Rat [18] = test: concentration in plasma after dosing; conditions: 192 h; dosed: 678-39-7; 12 mg/kg; iv; Male; F344
Rat [19] = test: concentration in kidney after dosing; conditions: 1 h; dosed: Fluorotelomer alcohol 8+2; 24 mg/kg; oral; Male; Harlan Sprague Dawley
Rat [20] = test: concentration in brain after dosing; conditions: 6 h; dosed: Perfluorooctanoic acid; 12 mg/kg; oral; Male; Harlan Sprague Dawley
Rat [21] = test: concentration in plasma after dosing; conditions: 1 h; dosed: Potassium Perfluorobutane Sulfonate; 4 mg/kg; iv; Male; F344
Rat [22] = test: concentration in plasma after dosing; conditions: dosed: Potassium Perfluorobutane Sulfonate, 4 mg/kg, oral, Male, Harlan Sprague Dawley
Rat [23] = test: concentration in plasma after dosing; conditions: dosed: Potassium Perfluorobutane Sulfonate, 4 mg/kg, iv, Male, F344
Rat [24] = test: concentration in liver after dosing; conditions: 6 h; dosed: Potassium Perfluorobutane Sulfonate; 20 mg/kg; oral; Male; Harlan Sprague Dawley
Rat [25] = test: concentration in kidney after dosing; conditions: 6 h; dosed: Potassium Perfluorobutane Sulfonate; 20 mg/kg; oral; Male; Harlan Sprague Dawley
Rat [26] = test: concentration in plasma after dosing; conditions: 0.5 h; dosed: Potassium Perfluorobutane Sulfonate; 4 mg/kg; iv; Male; F344
Rat [27] = test: concentration in plasma after dosing; conditions: 1 h; dosed: Potassium Perfluorobutane Sulfonate; 4 mg/kg; iv; Female; Harlan Sprague-Dawley
Rat [28] = test: concentration in plasma after dosing; conditions: dosed: Potassium Perfluorobutane Sulfonate, 4 mg/kg, iv, Male, F344; remark: listed apart in the source
Rat [29] = test: concentration in plasma after dosing; conditions: dosed: Potassium Perfluorobutane Sulfonate, 4 mg/kg, iv, Male, F344; remark: listed apart in the source
Rat [30] = test: concentration in kidney after dosing; conditions: 12 h; dosed: Potassium Perfluorobutane Sulfonate; 20 mg/kg; oral; Male; Harlan Sprague Dawley
rat [31] = test: concentration in blood after dosing (ugEq/g tissue); conditions: dosed: benzo[a]pyrene, iv, male, Wistar

COc1ccc(C(=O)c2ccccc2)c(O)c1 [2-Hydroxy-4-methoxybenzophenone]
concentration in plasma [ng/mL]
Conditions | Rat [1] | Rat [2]
10 h | 80.4 | 31.5
10 min | 113 | 935

Conditions | concentration in plasma [ng/mL]
Mouse [3] | 90.1
Mouse [4] | 267
Rat [5] | 902

O=N[O-] [Nitrite]
concentration in plasma [ng/mL]
Conditions | 0.75 h | 1 h | 2 h | 2 min
Rat [6] | – | 21600 | 13000 | –
Rat [8] | 4000 | – | – | 2000

Conditions | concentration in plasma [ng/mL]
Rat [7] | 8200
Rat [9] | 9500

O=C(O)C(F)(F)C(F)(F)C(F)(F)C(F)(F)C(F)(F)C(F)(F)C(F)(F)F [Perfluorooctanoic acid]
Conditions | concentration in brain [ng/g] | concentration in kidney [ng/g] | concentration in liver [ng/g] | concentration in plasma [ng/mL]
Rat [10] | 1280 | – | – | –
Rat [11] | – | – | – | 497
Rat [12] | 3230 | – | – | –
Rat [14] | – | – | 7880 | –
Rat [15] | – | – | 162000 | –
Rat [17] | – | – | – | 392
Rat [18] | – | – | – | 310
Rat [19] | – | 175 | – | –
Rat [20] | 1350 | – | – | –

concentration in plasma [ng/mL]
Conditions | 0.25 h | 0.75 h | 6 h | 12 h
Rat [13] | 264000 | – | 108000 | –
Rat [16] | – | 1830 | – | 528

O=S(=O)([O-])C(F)(F)C(F)(F)C(F)(F)C(F)(F)F.[K+] [Potassium Perfluorobutane Sulfonate]
Conditions | concentration in kidney [ng/g] | concentration in liver [ng/g] | concentration in plasma [ng/mL]
Rat [21] | – | – | 20200
Rat [24] | – | 51600 | –
Rat [25] | 11000 | – | –
Rat [26] | – | – | 12500
Rat [27] | – | – | 3410
Rat [30] | 3610 | – | –

concentration in plasma [ng/mL]
Conditions | Rat [22] | Rat [23] | Rat [28] | Rat [29]
0.25 h | 3580 | 26000 | – | 27200
0.75 h | – | – | 21100 | –
6 h | 11600 | 7280 | – | 4170
24 h | – | – | 171 | –

c1ccc2c(c1)cc1ccc3cccc4ccc2c1c34 [benzo[a]pyrene]
concentration in blood, rat [31]
Conditions | 2 mg/kg | 6 mg/kg | 15 mg/kg
0.5 h | 0.66 | 2.42 | 13.8
0.75 h | 0.47 | 1.99 | 10.6
1 h | 0.42 | 1.72 | 8.52
1.5 h | 0.17 | 0.5 | 7.16
2 h | 0.35 | 0.14 | 3.93
3 h | – | 0.03 | 1.86
4 h | – | – | 0.19
5 h | – | 0.01 | 0.09
5 min | 2.64 | 4.66 | 28.8
6 h | – | – | 0.05
8 h | – | – | 0.02
10 min | 1.85 | 5 | 29.8
20 min | 1.2 | 3.78 | 15.9
24 h | – | – | 0.015
32 h | – | – | 0.002
